# According to US8822464B2, “N-aryl-piperazine derivatives and their use as positive allosteric modulators of mGluR5 receptors” (Boehringer Ingelheim International GmbH, priority 2011, dated 2014):
# Target: T1, human recombinant mGluR5 (Homo sapiens, UniProt P41594)
# T1 construct: expressed in transfected cells; host or cells: HEK 293 cell line; cultured with tetracycline, hygromycin and geneticin; tetracycline withdrawn 3-7 days before the assay
# Assay: positive modulation of mGluR5, calcium based FLIPR assay in HEK 293 cells
# Details: HEK 293 cell line expressing human recombinant mGluR5; peak height of Ca release fluorescence signal after glutamate at approximately 5% basal stimulation; nonlinear regression
# Protocol: The positive modulation of mGluR5 is measured in a HEK 293 cell line expressing human recombinant mGluR5 and is detected with calcium based FLIPR assay. The cells are cultured with DMEM supplemented with 10% FCS, 2 μg/mL tetracycline, 100 μg/mL hygromycin and 500 μg/mL gneticin. The cell culture media is exchanged for tetracycline-free cell culture media 3-7 days before the assay. One day before the assay the cell culture medium is exchanged to DMEM without glutamine and phenol red and supplemented with 10% FCS, 100 μg/mL hygromycin and 500 μg/mL geneticin. On the assay day, the medium of the subconfluent cultures is removed and the cells are detached by addition of 2.5 ml EDTA(0.02%) per 175 cm2 culture flask for 1 minute. The cells are resuspend in Ringer solution (140 mM NaCl, 5 mM KCl, 2.5 mM CaCl2, 1.5 mM MgCl2, 5 mM Glucose, 10 mM Hepes; adjusted to pH 7.4 with NaOH), pooled and Ringer solution added to adjust the volume to 50 mL. The cell suspension is centrifuged for 5 min at 1500 U/min (425 g). The supernatant is removed and the cells washed a second time with 50 ml fresh Ringer solution and centrifuged again as before. The supernatant is again removed and the pellet resuspended in Ringer solution to 1,000,000 cells/ml (1×10^6 cells/mL). The cells are plated onto BD BioCoat Poly-D-Lysine 384 well plates (20.000 cells/well; 20 μl/well). The lid covered plates are then incubated until use at 37° C./10% CO2. For dye loading, 20 μl of Calcium-4 assay kit solution (prepared according to the manufacturer's description in Ringer solution) are added to the cells and the plates are incubated for 80 min 37° C. and then 10 min at room temperature.
# Controls, Compound Dilution and Assay Execution:
# Each assay plate contained wells with “high” and “low” controls:
# Low controls 1% DMSO/ringer solution+basal glutamate activation (defined as 100% CTL).
# High controls 10 μM CDPPB+basal glutamate activation (defined as 200% CTL).
# Test compounds are dissolved and diluted in DMSO to 100-fold the desired concentrations. In a second step, the compounds are diluted in Ringer solution such that the compounds are 4-fold more concentrated than the desired final assay concentration. The final DMSO concentration was 1%.
# 20 μl of each compound solution are then transferred to the assay plate and the Ca2+ kinetic is measured to determine any intrinsic compound activity. After 5 min incubation in the FLIPR device, the second stimulation with 20 μl of glutamate in Ringer solution (glutamate concentration adjusted to approximately 5% basal stimulation of the maximal possible glutamate effect) is added and the kinetic Ca2+ response of the wells was measured for the modulation effect.
# The peak height of the Ca release related fluorescence signal (9-66) is used for the EC50. The EC50 of the modulation is calculated over a nonlinear regression with GraphPad Prism (Table 1).
# T1 sequence (P41594 21-1212): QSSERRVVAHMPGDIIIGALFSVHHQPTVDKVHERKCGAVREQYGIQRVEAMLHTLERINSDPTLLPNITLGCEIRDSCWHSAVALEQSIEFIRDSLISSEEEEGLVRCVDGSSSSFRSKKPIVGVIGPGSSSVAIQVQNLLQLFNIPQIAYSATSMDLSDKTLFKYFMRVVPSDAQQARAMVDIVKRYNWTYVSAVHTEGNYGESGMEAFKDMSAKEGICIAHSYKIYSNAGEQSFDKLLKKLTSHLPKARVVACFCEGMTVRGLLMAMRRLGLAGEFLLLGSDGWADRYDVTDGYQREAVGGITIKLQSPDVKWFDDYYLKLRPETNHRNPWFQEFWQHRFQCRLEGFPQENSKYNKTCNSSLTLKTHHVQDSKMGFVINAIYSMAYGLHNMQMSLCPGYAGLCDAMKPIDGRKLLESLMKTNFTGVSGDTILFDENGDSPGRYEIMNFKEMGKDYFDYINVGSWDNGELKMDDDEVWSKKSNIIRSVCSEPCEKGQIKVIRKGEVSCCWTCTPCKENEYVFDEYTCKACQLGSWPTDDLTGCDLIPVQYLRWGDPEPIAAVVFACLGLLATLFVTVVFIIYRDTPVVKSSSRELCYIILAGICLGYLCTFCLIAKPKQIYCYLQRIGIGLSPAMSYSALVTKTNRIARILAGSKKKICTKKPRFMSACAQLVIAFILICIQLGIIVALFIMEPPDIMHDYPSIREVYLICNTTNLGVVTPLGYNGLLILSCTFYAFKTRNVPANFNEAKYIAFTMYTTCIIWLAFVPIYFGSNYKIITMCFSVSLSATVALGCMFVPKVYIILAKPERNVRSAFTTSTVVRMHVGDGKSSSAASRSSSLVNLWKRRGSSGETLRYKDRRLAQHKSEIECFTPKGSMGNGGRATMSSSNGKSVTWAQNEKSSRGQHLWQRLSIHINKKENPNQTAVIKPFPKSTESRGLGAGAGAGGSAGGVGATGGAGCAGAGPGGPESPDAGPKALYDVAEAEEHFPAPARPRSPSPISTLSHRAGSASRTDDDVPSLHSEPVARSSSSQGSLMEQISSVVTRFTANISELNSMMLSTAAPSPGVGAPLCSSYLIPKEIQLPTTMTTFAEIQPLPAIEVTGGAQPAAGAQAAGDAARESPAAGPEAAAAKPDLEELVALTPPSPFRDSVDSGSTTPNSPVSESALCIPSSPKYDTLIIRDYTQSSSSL
row,SMILES,EC50
1,Cc1cc(-c2cc(-c3ccccc3)n(CC(=O)N3CCN(c4ccccn4)CC3)n2)ccc1F [Example 7.01.04],11 nM
2,COCCCc1cc(-c2ccc(F)c(C)c2)nn1CC(=O)N1CCN(c2cc(OC)ncn2)CC1 [Example 7.01.110],137 nM
3,Cc1ccc(-c2cc(-c3ccccc3)n(CC(=O)N3CCN(c4ccccn4)CC3)n2)cc1F [Example 7.01.189],48 nM
4,"Cc1cc(-c2cc(-c3ccccc3)n(CC(=O)N3CCN(c4ncccn4)CC3)n2)ccc1F [Example 7.01.01, 2-(3-(4-Fluoro-3-methyl-phenyl)-5-phenyl-pyrazol-1-yl)-1-(4-(2-pyrimidinyl)-1-piperazinyl)-ethanon]",6 nM
5,CCc1cc(-c2ccc(F)cc2)nn1CC(=O)N1CCN(c2ncccn2)CC1 [Example 7.01.74],253 nM
6,COc1ccnc(N2CCN(C(=O)Cn3nc(-c4ccc(OC)c(C)c4)cc3C(C)C)CC2)c1 [Example 7.01.55],501 nM
7,O=C(Cn1nc(-c2ccc(F)cc2)cc1-c1ccc(F)cn1)N1CCN(c2ncccn2)CC1 [Example 7.01.65],253 nM
8,COc1cc(N2CCN(C(=O)Cn3nc(-c4ccc(F)cn4)cc3-c3ccc(F)cc3)CC2)ncn1 [Example 7.01.63],94 nM
9,O=C(Cn1nc(-c2ccc(OC(F)F)cn2)cc1-c1ccccc1)N1CCN(c2ncccn2)CC1 [Example 7.01.178],21 nM
10,O=C(Cn1nc(-c2ccc(OC(F)F)cc2)cc1-c1ccccc1)N1CCN(c2ccccn2)CC1 [Example 7.01.175],10 nM
11,COc1cnc(N2CCN(C(=O)Cn3nc(-c4ccc(F)c(C)c4)cc3C)CC2)nc1 [Example 7.02.26],36 nM
12,Cc1cc(-c2cc(C(C)C)n(CC(=O)N3CCN(c4ncc(F)cn4)CC3)n2)ccc1F [Example 7.01.31],208 nM
13,Cc1ccnc(N2CCN(C(=O)Cn3nc(-c4ccc(F)c(C)c4)cc3C3CC3)CC2)c1 [Example 7.01.44],176 nM
14,O=C(Cn1nc(-c2ccc(F)cc2)cc1-c1ccc(F)cc1)N1CCN(c2ncccn2)CC1 [Example 7.01.13],14 nM
15,CCc1cccc(-c2cc(CC)n(CC(=O)N3CCN(c4cc(OC)ncn4)CC3)n2)c1 [Example 7.01.129],212 nM
16,CCCc1cc(-c2ccc(F)c(C)c2)nn1CC(=O)N1CCN(c2ccccn2)CC1 [Example 7.01.83],52 nM
17,O=C(Cn1nc(-c2ccc(F)cc2)cc1-c1ccc(F)cc1)N1CCN(c2ccccn2)CC1 [Example 7.01.15],30 nM
18,COc1ccc(-c2cc(C(C)C)n(CC(=O)N3CCN(c4cccnn4)CC3)n2)cc1 [Example 7.01.22],701 nM
19,Cc1ccc(-c2cc(-c3ccccc3)n(CC(=O)N3CCN(c4ccccn4)CC3)n2)nc1 [Example 7.01.106],35 nM
20,CC(C)c1cc(-c2ccc(F)cc2)nn1CC(=O)N1CCN(c2ncccn2)CC1 [Example 7.01.90],157 nM

row,SMILES,EC50
1,CCc1cc(-c2cccc(C)c2)nn1CC(=O)N1CCN(c2ncccn2)CC1 [Example 7.01.94],136 nM
2,CCc1cc(-c2cc(C)c(F)c(C)c2)nn1CC(=O)N1CCN(c2ncc(OC)cn2)CC1 [Example 7.01.141],346 nM
3,Cc1cccc(-c2cc(-c3ccccc3)nn2CC(=O)N2CCN(c3ncccn3)CC2)c1 [Example 7.01.164],42 nM
4,CCc1cc(-c2cccc(C#N)c2)nn1CC(=O)N1CCN(c2ccccn2)CC1 [Example 7.01.161],297 nM
5,COc1cc(N2CCN(C(=O)Cn3nc(-c4cccc(C#N)c4)cc3-c3ccccc3)CC2)ncn1 [Example 7.01.170],22 nM
6,O=C(Cn1nc(-c2ccccc2)cc1-c1ccc(F)cn1)N1CCN(c2ncccn2)CC1 [Example 7.01.66],957 nM
7,Cc1cnc(-c2cc(-c3ccccc3)n(CC(=O)N3CCN(c4ccccn4)CC3)n2)cc1C [Example 7.01.136],38 nM
8,CCc1cc(-c2ccc(C)c(C)c2)nn1CC(=O)N1CCN(c2ccccn2)CC1 [Example 7.01.91],195 nM
9,O=C(Cn1nc(-c2ccc(C(F)F)cc2)cc1-c1ccccc1)N1CCN(c2ncccn2)CC1 [Example 7.01.191],7 nM
10,COCCCc1cc(-c2ccc(F)c(C)c2)nn1CC(=O)N1CCN(c2ncc(OC)cn2)CC1 [Example 7.01.112],120 nM
11,COc1cc(N2CCN(C(=O)Cn3nc(-c4ccc(F)c(C)c4)cc3C3CCCCC3)CC2)ncn1 [Example 7.01.36],308 nM
12,N#Cc1cccc(-c2cc(-c3ccccc3)nn2CC(=O)N2CCN(c3ncccn3)CC2)c1 [Example 7.01.172],152 nM
13,COc1cc(N2CCN(C(=O)Cn3nc(-c4ccc(F)cc4)cc3C(C)C)CC2)ncn1 [Example 7.01.88],366 nM
14,Cc1cc(-c2cc(C3CC3)n(CC(=O)N3CCN(c4ccccn4)CC3)n2)ccc1F [Example 7.01.41],234 nM
15,CCc1cc(-c2cc(C)c(F)c(C)c2)nn1CC(=O)N1CCN(c2ccccn2)CC1 [Example 7.01.139],595 nM
16,CCc1cccc(-c2cc(CC)n(CC(=O)N3CCN(c4ncc(F)cn4)CC3)n2)c1 [Example 7.01.130],471 nM
17,Cc1ccc(-c2cc(-c3ccccc3)nn2CC(=O)N2CCN(c3ncccn3)CC2)nc1C [Example 7.01.133],652 nM
18,CCCc1cc(-c2ccc(F)c(C)c2)nn1CC(=O)N1CCN(c2cc(OC)ncn2)CC1 [Example 7.01.79],26 nM
19,CCc1cc(-c2ccc(F)cc2)nn1CC(=O)N1CCN(c2ncc(F)cn2)CC1 [Example 7.01.78],723 nM
20,CCc1cc(-c2cc(C)c(F)c(C)c2)nn1CC(=O)N1CCN(c2cc(OC)ncn2)CC1 [Example 7.01.140],707 nM

row,SMILES,EC50
1,COc1cnnc(N2CCN(C(=O)Cn3nc(-c4ccc(F)c(C)c4)cc3C3CC3)CC2)c1 [Example 7.01.45],1010 nM
2,Cc1ccnc(N2CCN(C(=O)Cn3nc(-c4ccc(F)c(C)c4)cc3C(C)C)CC2)c1 [Example 7.01.24],79 nM
3,Cc1cc(-c2cc(C)n(CC(=O)N3CCN(c4ccccn4)CC3)n2)ccc1F [Example 7.02.21],77 nM
4,Cc1cc(-c2cc(CC(C)C)n(CC(=O)N3CCN(c4ncc(F)cn4)CC3)n2)ccc1F [Example 7.01.122],51 nM
5,CCc1cc(-c2ccc(C)c(F)c2)nn1CC(=O)N1CCN(c2cc(OC)ncn2)CC1 [Example 7.01.183],318 nM
6,CCc1cc(-c2ccc(F)c(C)c2)nn1CC(=O)N1CCN(c2ncccn2)CC1 [Example 7.01.70],41 nM
7,COCc1cc(-c2ccc(F)c(C)c2)nn1CC(=O)N1CCN(c2ncccn2)CC1 [Example 7.02.15],153 nM
8,COc1cnc(N2CCN(C(=O)Cn3nc(-c4cccc(C)c4)cc3-c3ccccc3)CC2)nc1 [Example 7.01.171],9 nM
9,COc1ccnc(N2CCN(C(=O)Cn3nc(-c4ccc(F)c(C)c4)cc3C3CCCCC3)CC2)c1 [Example 7.01.37],298 nM
10,O=C(Cn1nc(-c2ccccc2)cc1-c1ccccc1)N1CCN(c2cccnc2)CC1 [Example 7.02.02],428 nM
11,COc1ccnc(N2CCN(C(=O)Cn3nc(-c4ccc(C)cn4)cc3-c3ccccc3)CC2)c1 [Example 7.01.119],19 nM
12,COc1cc(N2CCN(C(=O)Cn3nc(-c4ccc(F)c(C)n4)cc3-c3ccccc3)CC2)ncn1 [Example 7.01.156],33 nM
13,COc1cc(N2CCN(C(=O)Cn3nc(-c4ccc(F)c(C)c4)cc3C(C)C)CC2)ncn1 [Example 7.01.27],64 nM
14,COc1cc(-c2cc(C(C)C)n(CC(=O)N3CCN(c4cc(C)ccn4)CC3)n2)ccc1F [Example 7.01.48],687 nM
15,Cc1cc(-c2cc(-c3ccccc3)n(CC(=O)N3CCN(c4ncccn4)CC3)n2)ncc1F [Example 7.01.157],35 nM
16,Cc1cccc(-c2cc(-c3ccccc3)n(CC(=O)N3CCN(c4ccccn4)CC3)n2)c1 [Example 7.01.166],8 nM
17,Cc1ccc(-c2cc(-c3ccccc3)n(CC(=O)N3CCN(c4ncccn4)CC3)n2)cc1C [Example 7.01.98],13 nM
18,Cc1cc(-c2cc(-c3ccccc3)n(CC(=O)N3CCN(c4cc(OCC(C)O)ncn4)CC3)n2)ccc1F (centres unmarked) [Example 7.05.02],38 nM
19,Cc1cnc(-c2cc(-c3ccccc3)n(CC(=O)N3CCN(c4ncccn4)CC3)n2)cc1C [Example 7.01.135],21 nM
